Results reported in patent publication US20110117017A1, “PEPTIDES WITH PROPERTIES OF AN […] FOR THE ALPHA 1A […] RECEPTOR AND USES THEREOF” (priority 2006, published 2011).

Experiments:
alpha1d receptor = target: T1, alpha1d receptor (Homo sapiens, UniProt P25100); assay: displacement of 3H-prazosin binding to the alpha1d receptor (yeast membranes)
T1 construct: made in house; host or cells: Pichia pastoris (membranes)
T1 sequence (P25100 1-572): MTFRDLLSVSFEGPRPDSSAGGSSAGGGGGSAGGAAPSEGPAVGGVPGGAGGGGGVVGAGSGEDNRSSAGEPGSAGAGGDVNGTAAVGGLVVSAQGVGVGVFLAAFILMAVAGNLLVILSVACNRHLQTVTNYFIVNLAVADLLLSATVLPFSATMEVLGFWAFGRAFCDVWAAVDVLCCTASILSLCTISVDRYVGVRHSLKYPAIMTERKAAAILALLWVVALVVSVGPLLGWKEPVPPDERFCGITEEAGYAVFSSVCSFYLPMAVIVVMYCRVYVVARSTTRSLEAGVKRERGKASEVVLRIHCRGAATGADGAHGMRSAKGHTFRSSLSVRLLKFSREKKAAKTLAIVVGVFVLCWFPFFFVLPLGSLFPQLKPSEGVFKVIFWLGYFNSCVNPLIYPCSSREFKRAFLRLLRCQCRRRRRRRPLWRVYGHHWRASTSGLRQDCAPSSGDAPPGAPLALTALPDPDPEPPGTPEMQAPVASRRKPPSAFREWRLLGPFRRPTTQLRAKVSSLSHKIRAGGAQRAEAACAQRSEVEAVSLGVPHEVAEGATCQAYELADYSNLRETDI

alpha1b receptor = target: T2, alpha1b receptor (Homo sapiens, UniProt P35368); assay: displacement of 3H-prazosin binding to the alpha1b receptor (yeast membranes)
T2 construct: made in house; host or cells: Pichia pastoris (membranes)
T2 sequence (P35368 1-520): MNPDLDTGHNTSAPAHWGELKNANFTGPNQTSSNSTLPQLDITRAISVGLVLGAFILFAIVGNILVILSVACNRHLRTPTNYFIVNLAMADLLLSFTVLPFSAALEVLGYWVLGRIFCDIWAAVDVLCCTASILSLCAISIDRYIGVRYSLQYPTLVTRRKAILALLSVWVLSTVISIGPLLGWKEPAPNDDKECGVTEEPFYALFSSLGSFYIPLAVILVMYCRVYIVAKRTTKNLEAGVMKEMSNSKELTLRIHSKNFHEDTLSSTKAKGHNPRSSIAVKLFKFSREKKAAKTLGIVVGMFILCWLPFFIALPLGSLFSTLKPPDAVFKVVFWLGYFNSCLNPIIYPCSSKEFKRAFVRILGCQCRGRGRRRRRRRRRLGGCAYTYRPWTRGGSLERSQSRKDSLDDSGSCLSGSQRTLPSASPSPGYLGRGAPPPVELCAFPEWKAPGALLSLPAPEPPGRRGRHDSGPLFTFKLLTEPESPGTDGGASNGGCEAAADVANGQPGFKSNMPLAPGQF

[1] = target: T3, alpha1a adrenergic receptor (Homo sapiens, UniProt P35348); assay: hot saturation of 125I-AdTx1 on yeast membranes expressing the alpha1a adrenergic receptor
T3 sequence (P35348 1-466): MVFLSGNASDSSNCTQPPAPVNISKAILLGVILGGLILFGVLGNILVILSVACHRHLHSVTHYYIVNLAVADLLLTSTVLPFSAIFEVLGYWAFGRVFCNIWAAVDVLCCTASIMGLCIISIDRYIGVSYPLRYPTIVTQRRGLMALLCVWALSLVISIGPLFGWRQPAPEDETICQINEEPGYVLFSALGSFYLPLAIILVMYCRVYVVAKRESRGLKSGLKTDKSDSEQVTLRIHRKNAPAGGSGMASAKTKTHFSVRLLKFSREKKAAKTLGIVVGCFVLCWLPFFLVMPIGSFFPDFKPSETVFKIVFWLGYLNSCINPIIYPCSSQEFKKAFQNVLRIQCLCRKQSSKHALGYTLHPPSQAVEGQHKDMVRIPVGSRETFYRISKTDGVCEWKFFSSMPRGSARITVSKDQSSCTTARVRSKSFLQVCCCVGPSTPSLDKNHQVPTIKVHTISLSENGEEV
Experimental: The analysis of the saturation of the alpha1a adrenergic receptor with AdTx1 is carried out by incubating increasing concentrations of the iodinated peptide in the presence of 20 μg of membranes containing the alpha1a adrenergic receptor, for 20 h, and then measuring the radioactivity as above.

α2a adrenergic receptor = target: T4, α2a adrenergic receptor (Homo sapiens, UniProt P08913); assay: displacement of 3H-rauwolscine binding to the alpha2a subtype (yeast membranes)
T4 construct: made in house; host or cells: Pichia pastoris (membranes)
T4 sequence (P08913 1-465): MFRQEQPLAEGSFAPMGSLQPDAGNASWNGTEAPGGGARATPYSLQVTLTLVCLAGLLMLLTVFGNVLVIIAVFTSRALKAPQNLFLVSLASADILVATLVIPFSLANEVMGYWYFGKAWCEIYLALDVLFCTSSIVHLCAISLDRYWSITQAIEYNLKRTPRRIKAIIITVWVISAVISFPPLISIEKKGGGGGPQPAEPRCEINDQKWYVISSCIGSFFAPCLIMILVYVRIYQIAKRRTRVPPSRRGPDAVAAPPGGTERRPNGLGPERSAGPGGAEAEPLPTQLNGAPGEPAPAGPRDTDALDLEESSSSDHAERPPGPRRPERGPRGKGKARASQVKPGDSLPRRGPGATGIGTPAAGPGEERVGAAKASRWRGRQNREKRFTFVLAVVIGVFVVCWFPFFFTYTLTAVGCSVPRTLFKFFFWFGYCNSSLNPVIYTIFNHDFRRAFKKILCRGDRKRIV

alpha1a receptor = target: T5, alpha1a receptor (Homo sapiens, UniProt P35348); assay: displacement of 3H-prazosin binding to the alpha1a receptor (yeast membranes)
T5 construct: made in house; host or cells: Pichia pastoris (membranes)
T5 sequence (P35348 1-466): T3 sequence (P35348 1-466)

[2] = target: T3, alpha1a adrenergic receptor
beta1 receptor = target: T6, beta1 receptor (Homo sapiens, UniProt P08588); assay: displacement of 3H-CGP12177 binding to the beta1 receptor (yeast membranes)
T6 construct: made in house; host or cells: Pichia pastoris (membranes)
T6 sequence (P08588 whole entry): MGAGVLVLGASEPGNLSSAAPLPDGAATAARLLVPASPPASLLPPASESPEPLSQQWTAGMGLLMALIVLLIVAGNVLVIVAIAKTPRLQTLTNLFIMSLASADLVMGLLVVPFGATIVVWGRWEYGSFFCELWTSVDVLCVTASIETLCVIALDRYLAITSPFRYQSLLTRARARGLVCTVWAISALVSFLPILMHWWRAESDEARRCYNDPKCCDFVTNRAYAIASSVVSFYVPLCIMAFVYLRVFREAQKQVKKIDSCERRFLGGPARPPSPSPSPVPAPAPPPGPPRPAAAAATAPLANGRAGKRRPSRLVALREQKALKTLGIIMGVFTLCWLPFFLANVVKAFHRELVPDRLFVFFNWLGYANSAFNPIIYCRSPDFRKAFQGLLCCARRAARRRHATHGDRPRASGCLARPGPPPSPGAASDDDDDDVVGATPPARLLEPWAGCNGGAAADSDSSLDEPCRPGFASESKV

Q: Which results are given for CC[C@H](C)[C@@H]1NC(=O)CNC(=O)[C@H](Cc2ccccc2)NC(=O)[C@H]([C@@H](C)CC)NC(=O)[C@H](CO)NC(=O)[C@H](CCCCN)NC(=O)[C@H](CO)NC(=O)[C@H]([C@@H](C)O)NC(=O)[C@H](C(C)C)NC(=O)[C@@H](NC(=O)[C@@H](NC(=O)[C@@H](N)CC(C)C)[C@@H](C)O)CSSC[C@@H]2NC(=O)[C@H](CC(C)C)NC(=O)[C@H](CC(N)=O)NC(=O)[C@H](CCC(N)=O)NC(=O)CNC(=O)[C@H](CC(=O)O)NC(=O)[C@@H]3CCCN3C(=O)[C@H](CSSC[C@@H](C(=O)N[C@@H](C)C(=O)N[C@@H](C)C(=O)N[C@H](C(=O)N[C@H]3CSSC[C@@H](C(=O)N[C@H]4CSSC[C@@H](C(=O)N[C@@H](CC(N)=O)C(=O)N[C@@H](CCC(=O)O)C(=O)O)NC(=O)[C@H](CCCCN)NC(=O)[C@H](CC(=O)O)NC(=O)[C@H]([C@@H](C)O)NC(=O)[C@H](CCCCN)NC4=O)NC(=O)[C@H](Cc4c[nH]cn4)NC(=O)[C@H]([C@@H](C)CC)NC(=O)[C@H](CO)NC(=O)[C@H](CC(=O)O)NC(=O)[C@H](Cc4ccc(O)cc4)NC(=O)[C@H](CC(N)=O)NC(=O)[C@H](CCC(=O)O)NC(=O)[C@@H]4CCCN4C(=O)[C@H]([C@@H](C)CC)NC(=O)[C@@H]4CCCN4C3=O)[C@@H](C)O)NC(=O)CNC(=O)[C@H](CCCNC(=N)N)NC(=O)[C@H]([C@@H](C)O)NC(=O)[C@H](CO)NC(=O)[C@H](CC(=O)O)NC(=O)[C@H](Cc3ccc(O)cc3)NC(=O)[C@H]([C@@H](C)CC)NC(=O)[C@H](CCCCN)NC(=O)[C@@H]3CCCN3C(=O)[C@H](C(C)C)NC(=O)[C@H](C(C)C)NC(=O)[C@H](Cc3ccc(O)cc3)NC(=O)[C@H](Cc3c[nH]cn3)NC(=O)[C@H](CCCNC(=N)N)NC(=O)[C@H](CCCNC(=N)N)NC(=O)[C@H](CCCCN)NC(=O)[C@H](Cc3ccccc3)NC2=O)NC(=O)[C@H](CC(=O)O)NC(=O)[C@H](CCC(=O)O)NC(=O)[C@H]([C@@H](C)O)NC(=O)[C@H]([C@@H](C)O)NC1=O [AdTx1]?
A: IC50 (alpha1d receptor): 9900 nM; IC50 (alpha1b receptor): 2300 nM; Kd [1]: 0.8 ± 0.2 nM; IC50 (α2a adrenergic receptor): > 50000 nM; IC50 (alpha1a receptor): 1.8 nM; IC50 [2]: 0.5 nM; IC50 (beta1 receptor): > 50000 nM
